Some results are limits rather than exact numbers.

For one experiment, the target named is T1, human JAK3 kinase domain (Homo sapiens, UniProt P52333).
T1 construct: attached to the N-terminal of the 796-1124 (C-terminal) fragment of the human JAK3 protein; His-tag (N); purchased Carna Biosciences, Inc. (Kobe, Japan); host or cells: baculovirus expression system
T1 sequence (P52333 796-1124): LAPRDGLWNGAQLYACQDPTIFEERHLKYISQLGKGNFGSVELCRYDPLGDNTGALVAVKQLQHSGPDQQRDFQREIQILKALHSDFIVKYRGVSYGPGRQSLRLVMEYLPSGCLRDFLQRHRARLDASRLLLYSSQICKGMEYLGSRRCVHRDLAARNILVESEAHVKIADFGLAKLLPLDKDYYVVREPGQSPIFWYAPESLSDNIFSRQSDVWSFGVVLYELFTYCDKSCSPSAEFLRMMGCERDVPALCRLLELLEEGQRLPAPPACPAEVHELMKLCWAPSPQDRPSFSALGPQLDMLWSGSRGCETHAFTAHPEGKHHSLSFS
Put plainly: JAK3 inhibition test. Type of experiment: biochemical. The settings on record: 20 μM ATP in substrate solution, Biotin-Lyn-Substrate-2, one hour at ambient temperature; compounds of the Examples. Here is the method:
The JAK3 inhibition test was performed as described below
Purified human JAK3 kinase domain was purchased from Carna Biosciences, Inc. (Kobe, Japan). This was afforded as described below.
As an assay buffer, 15 mM Tris-HCl pH 7.5 containing 0.01% Tween 20 and 2 mM DTT (dithiothreitol) was used.
After incubation at ambient temperature for one hour, the plate was washed with a cleaning buffer (50 mM Tris-HCl pH 7.5, 150 mM NaCl, 0.02% Tween 20), and a blocking buffer (a cleaning buffer containing 0.1% bovine serum albumin) was added to the plate. After incubation at ambient temperature for 30 minutes, the blocking buffer was removed, and an HRP-PY-20 solution (afforded by diluting HRP-PY-20 solution with the blocking buffer 500 times) was added. After incubation at ambient temperature for 30 minutes, the plate was washed four times, and a TMB substrate solution (Sigma) was added to the plate. After incubation at ambient temperature for 4 minutes, 1M sulfuric acid was added to stop the reaction. Enzyme activity was measured as absorbance at 450 nm.
As usually defined, the IC50 is the concentration that inhibits the measured activity by half. `C[C@@H]1CCN(c2ccc(C#N)cn2)C[C@@H]1n1[nH]c(=O)c2cnc3[nH]ccc3c21` (racemic) [Example 72] displayed an IC50 of 1.6 nM. That is a single-digit nanomolar value.

`N#Cc1ccc(N2CC[C@@H](Nc3c(C(N)=O)cnc4[nH]ccc34)[C@@H](F)C2)nc1` (racemic) [Example 41] showed an IC50 of 1.1 nM.

Compound `C[C@@H]1CCN(C(=O)N2CCC=N2)C[C@@H]1n1c(=O)[nH]c2cnc3[nH]ccc3c21` (racemic) [Example 110] had a half-inhibitory concentration (IC50) of 10 nM.

With `NC(=O)c1cnc2[nH]ccc2c1N[C@@H]1CCN(c2ccc(C(F)(F)F)nn2)C[C@@H]1F` (racemic) [Example 91], the IC50 was found to be 3.2 nM.

Regarding `C[C@@H]1CN(c2ccc(C#N)nn2)CC[C@@H]1Nc1c(C(N)=O)cnc2[nH]ccc12` (racemic) [Example 66], the IC50 worked out at 1 nM.

For the compound `CNC(=O)C(=O)Nc1nn([C@H]2CN(c3ccc([N+](=O)[O-])cn3)CC[C@H]2C)c2c1cnc1[nH]ccc12` (racemic) [Example 77], inhibition was half-maximal at 4.8 nM (IC50).

Compound `C[C@@H]1CN(c2ccc(C#N)cn2)CC[C@@H]1Nc1c(C(N)=O)cnc2[nH]ccc12` (racemic) [Example 65] came in with an IC50 of 0.78 nM.

In the case of `C[C@H]1CN(c2ccc(C#N)cn2)CC[C@H]1Nc1c(C(N)=O)cnc2[nH]cnc12` (racemic) [Example 49], half-maximal inhibition (IC50) was put at 2.2 nM. Compared with the last compound, the IC50 is about 2.8-fold higher.

In turn, `N#Cc1ccc(N2CCC(Nc3c(C(N)=O)cnc4[nH]ccc34)CC2)cc1` [Example 58] displayed an IC50 of 3.4 nM.

`C[C@@H]1CCN(C(=O)N2C[C@@H](F)C[C@H]2C#N)C[C@@H]1n1c(=O)[nH]c2cnc3[nH]ccc3c21` (mixture of isomers) [Example 2, (2R,4R)-4-fluoro-1-{[(3S,4S)-4-methyl-3-(2-oxo-3,6-dihydroimidazo[4,5-d]pyrrolo[2,3-b]pyridine-1(2H)-yl)-piperidine-1-yl]carbonyl}pyrrolidine-2-carbonitrile and (2R,4R)-4-fluoro-1-{[(3R,4R)-4-methyl-3-(2-oxo-3,6-dihydroimidazo[4,5-d]pyrrolo[2,3-b]pyridine-1(2H)-yl)-piperidine-1-yl]carbonyl}pyrrolidine-2-carbonitrile] returned an IC50 of 0.86 nM.

In the case of `N#Cc1ccc(N2CC[C@@H](Nc3c(C(N)=O)cnc4[nH]ccc34)[C@H](F)C2)nc1` (racemic) [Example 82], 2.7 nM corresponded to half-maximal inhibition (IC50). Against the preceding compound, the IC50 is about 3.1-fold higher.

With `C[C@@H]1CCN(C(=O)CC#N)C[C@@H]1n1nc(N)c2cnc3[nH]ccc3c21` (racemic) [Example 21], the IC50 was 0.52 nM.

Compound `N#Cc1ccc(N2CC[C@@H](Nc3c(C(N)=O)cnc4[nH]ccc34)[C@@H](F)C2)nc1` [Example 94] gave an IC50 of 0.3 nM.

`Nc1nn(C2CCCCCC2)c2c1cnc1[nH]ccc12` [Example 12, 1-cycloheptyl-1,6-dihydropyrazolo-[3,4-d]pyrrolo[2,3-b]pyridine-3-amine]: the half-inhibitory concentration (IC50) was determined as 10 nM. Against the preceding compound, the IC50 is about 33-fold higher.

`CC[C@@H]1CCCC[C@@H]1n1nc(N)c2cnc3[nH]ccc3c21` [Example 129] displayed a concentration for half-maximal inhibition (IC50) of 3.8 nM.

Turning to `C[C@@H]1CCN(C(=O)CC#N)C[C@@H]1n1[nH]c(=O)c2cnc3[nH]ccc3c21` (racemic) [Example 22], inhibition was half-maximal at 1.7 nM (IC50).

Consider `N#Cc1ccc(N2CC[C@@H](Nc3c(C(N)=O)cnc4[nH]ccc34)[C@@H](F)C2)nn1` (racemic) [Example 6, 4-{[(3S,4R)-1-(6-cyanopyridazine-3-yl)-3-fluoropiperidine-4-yl]amino}-1H-pyrrolo[2,3-b]pyridine-5-carboxamide and 4-{[(3R,4S)-1-(6-cyanopyridazine-3-yl)-3-fluoropiperidine-4-yl]amino}-1-1H-pyrrolo[2,3-b]pyridine-5-carboxamide], for which the 50% inhibitory concentration (IC50) worked out at 0.76 nM.

The experiment is the same for the next values; noted with them: reference compounds produced according to the cited publications, compared in the JAK3 test.
On to `C[C@@H]1CCN(S(=O)(=O)c2cccnc2)C[C@@H]1N(C)c1ccnc2[nH]ccc12` [Reference compound A, reference compound], for which inhibition was half-maximal at 230 nM (IC50).

On to `CS(=O)(=O)N1CCCC(Nc2c(Cl)cnc3[nH]ccc23)C1` (centres unmarked) [Reference compound B, reference compound], for which 31 nM corresponded to half-maximal inhibition (IC50).

For a further experiment, the target named is HERG (Homo sapiens, UniProt Q12809). Put plainly: HERG assay. The note with it: low adverse effect.
Sequence of HERG (Q12809 whole entry): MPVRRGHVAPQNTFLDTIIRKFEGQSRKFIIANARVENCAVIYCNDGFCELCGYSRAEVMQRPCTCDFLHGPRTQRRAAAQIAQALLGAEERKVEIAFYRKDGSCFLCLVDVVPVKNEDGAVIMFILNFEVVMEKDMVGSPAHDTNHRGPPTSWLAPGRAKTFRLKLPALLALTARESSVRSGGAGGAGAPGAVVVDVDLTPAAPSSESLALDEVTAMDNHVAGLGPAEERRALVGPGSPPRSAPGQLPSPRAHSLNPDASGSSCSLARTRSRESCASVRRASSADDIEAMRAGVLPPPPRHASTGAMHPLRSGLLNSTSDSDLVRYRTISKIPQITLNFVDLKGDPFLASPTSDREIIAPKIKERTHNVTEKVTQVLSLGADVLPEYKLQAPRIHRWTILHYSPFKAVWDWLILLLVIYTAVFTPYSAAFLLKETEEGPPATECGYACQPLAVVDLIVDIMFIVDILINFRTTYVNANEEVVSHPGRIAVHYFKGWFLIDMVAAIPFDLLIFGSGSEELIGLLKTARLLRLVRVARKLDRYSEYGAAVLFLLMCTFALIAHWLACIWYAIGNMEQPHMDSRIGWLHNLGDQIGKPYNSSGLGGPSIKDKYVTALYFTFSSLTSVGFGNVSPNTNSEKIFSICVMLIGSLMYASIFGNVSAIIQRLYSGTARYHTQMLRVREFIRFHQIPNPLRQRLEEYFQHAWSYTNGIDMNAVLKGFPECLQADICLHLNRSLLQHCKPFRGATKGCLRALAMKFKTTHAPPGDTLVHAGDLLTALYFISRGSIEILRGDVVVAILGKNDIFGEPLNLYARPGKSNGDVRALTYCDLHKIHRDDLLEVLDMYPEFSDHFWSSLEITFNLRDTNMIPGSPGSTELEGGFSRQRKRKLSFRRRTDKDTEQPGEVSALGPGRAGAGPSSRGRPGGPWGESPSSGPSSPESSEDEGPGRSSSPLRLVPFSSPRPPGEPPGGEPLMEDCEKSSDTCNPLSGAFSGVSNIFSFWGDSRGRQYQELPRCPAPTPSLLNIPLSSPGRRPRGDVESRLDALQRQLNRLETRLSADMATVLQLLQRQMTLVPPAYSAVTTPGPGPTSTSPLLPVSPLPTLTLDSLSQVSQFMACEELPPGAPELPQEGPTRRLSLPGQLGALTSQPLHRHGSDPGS
`N#Cc1ccc(N2CC[C@@H](Nc3c(C(N)=O)cnc4[nH]ccc34)[C@@H](F)C2)nc1` (racemic) [Example 41]: the IC50 was no less than 100 µM.
